Measured values published in the supplement of paper PMC11451515.

How the values were obtained:
Test in all cases: AUC of viability dose-response curve (% viability x log10 dose units); higher = less sensitive
Details in all cases: 48 h
P12-Ichikawa = system: P12-Ichikawa
How it was run: (§1)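 Leukemia cells adapted to each medium (500 or 1000 cells/well, 1536-well plates) were exposed to library compounds in DMSO for 48 h at 37°C at 11 threefold doses, 47 μM to 0.79 nM. Luminescence by CellTiter-Glo One was normalised per plate to DMSO and cell-free wells, then fitted with a four-parameter log-logistic curve on log10 dose. Curves above full viability were scaled and quality-control failures removed before area under the curve was integrated by trapezoidal rule.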

SEM cells = system: SEM cells
How it was run: as §1

NOMO1 = system: NOMO1
How it was run: as §1

[1] = RPMI 5 mM glucose + 10% dialyzed FBS

| SMILES | AUC of viability dose-response curve (P12-Ichikawa; HPLM + 10% dialyzed FBS) | AUC of viability dose-response curve (P12-Ichikawa; RPMI 5 mM glucose + 10% FBS) | AUC of viability dose-response curve (P12-Ichikawa; [1]) | AUC of viability dose-response curve (SEM cells; HPLM + 10% dialyzed FBS) | AUC of viability dose-response curve (SEM cells; RPMI 5 mM glucose + 10% FBS) | AUC of viability dose-response curve (SEM cells; [1]) | AUC of viability dose-response curve (NOMO1; HPLM + 10% dialyzed FBS) | AUC of viability dose-response curve (NOMO1; RPMI 5 mM glucose + 10% FBS) | AUC of viability dose-response curve (NOMO1; [1]) |
| --- | --- | --- | --- | --- | --- | --- | --- | --- | --- |
| CC(C)NC[C@@H](C(=O)N1CCN(c2ncnc3c2[C@H](C)C[C@H]3O)CC1)c1ccc(Cl)cc1 | 367 | 350 | 362 | 257 | 251 | 249 | 411 | 444 | 419 |
| Cc1cn(-c2cc(NC(=O)c3ccc(C)c(Nc4nccc(-c5cccnc5)n4)c3)cc(C(F)(F)F)c2)cn1 | 328 | 340 | 346 | 377 | 345 | 347 | 436 | 407 | 419 |
| O=C(O[C@H]1C[C@H]2CC[C@@H](C1)[N+]21CCCC1)C(O)(c1ccccc1)c1ccccc1.[Cl-] | 461 | 464 | 470 | 460 | 437 | 449 | 472 | 462 | 467 |
| O=C(Nc1ccccc1-c1cn2c(CN3CCNCC3)csc2n1)c1cnc2ccccc2n1 | 388 | 369 | 361 | 364 | 366 | 310 | 381 | 350 | 391 |
| COc1ccc(C(C)=O)c(O)c1 | 422 | 421 | 423 | 439 | 450 | 462 | 350 | 366 | 381 |
| CN1\C(=C(\O)C2=CC=CC=C2[S+]1([O-])=O)C(=O)NC3=NC=C(C)S3 | 416 | 392 | 420 | 447 | 427 | 430 | 476 | 449 | 410 |
| O=C(c1ccc(Nc2nccc(-c3cc4ccccc4s3)n2)cc1)N1CCC(N2CCCC2)CC1 | 430 | 441 | 425 | 382 | 389 | 394 | 411 | 446 | 432 |
| C[C@]12CC[C@@H]3c4ccc(O)cc4C[C@@H](CCCCCCCCC[S+]([O-])CCCC(F)(F)C(F)(F)F)[C@H]3[C@@H]1CC[C@@H]2O (some centres undefined) | 464 | 462 | 455 | 475 | 411 | 459 | 428 | 470 | 429 |
| O=C(Nc1cc2cc[nH]c2cn1)c1ccccc1 | 360 | 414 | 386 | 359 | 335 | 364 | 366 | 385 | 401 |
| COc1ccc(C2CNC(=O)C2)cc1OC1CCCC1 (centres undefined) | 470 | 472 | 450 | 455 | 453 | 448 | 465 | 460 | 465 |
| C[C@@H]\1CC(=O)N\N=C1C2=CC=C(NN=C(C#N)C#N)C=C2 | 424 | 417 | 392 | 397 | 368 | 393 | 426 | 410 | 413 |
| CC(C)C(=O)Nc1ccc([N+](=O)[O-])c(C(F)(F)F)c1 | 350 | 360 | 378 | 453 | 472 | 461 | 332 | 309 | 320 |
| Cc1cnc(-c2cc(N3CCN(C(=O)CC[S+](C)(=O)[O-])CC3)ncc2Cl)c(C)c1 | 466 | 475 | 469 | 426 | 453 | 427 | 404 | 470 | 455 |
| C/C=C1\C2C=C(C)CC1(N)c1ccc(=O)[nH]c1C2 (centres undefined) | 471 | 447 | 442 | 442 | 458 | 463 | 463 | 467 | 465 |
| COc1ccc(-c2ccc3c(N4CCOC[C@@H]4C)nc(N4CCOC[C@@H]4C)nc3n2)cc1CO | 353 | 296 | 311 | 310 | 310 | 316 | 293 | 359 | 337 |
| CN(C)[C@H]\1[C@@H]2C[C@H]3C(=C(O)\[C@]2(O)C(=O)\C(=C1O)C(N)=O)/C(=O)C4=C(O)C=CC=C4[C@@]3(C)O | 470 | 467 | 461 | 426 | 441 | 452 | 468 | 443 | 454 |

| SMILES | AUC of viability dose-response curve (P12-Ichikawa; HPLM + 10% dialyzed FBS) | AUC of viability dose-response curve (P12-Ichikawa; RPMI 5 mM glucose + 10% FBS) | AUC of viability dose-response curve (P12-Ichikawa; [1]) | AUC of viability dose-response curve (SEM cells; HPLM + 10% dialyzed FBS) | AUC of viability dose-response curve (SEM cells; RPMI 5 mM glucose + 10% FBS) | AUC of viability dose-response curve (SEM cells; [1]) | AUC of viability dose-response curve (NOMO1; HPLM + 10% dialyzed FBS) | AUC of viability dose-response curve (NOMO1; RPMI 5 mM glucose + 10% FBS) | AUC of viability dose-response curve (NOMO1; [1]) |
| --- | --- | --- | --- | --- | --- | --- | --- | --- | --- |
| CCOC(=O)C/1=C(O)/C(=O)N(CC2=CC=CC=C2)C1 | 462 | 466 | 468 | 463 | 469 | 468 | 459 | 446 | 462 |
| CC[C@H](C)[N]1C=C(C)C2=C1C=C(C=C2C(=O)NC\C3=C(C)\C=C(\C)NC3=O)C4=CC=C(N=C4)N5CCNCC5 | 476 | 468 | 474 | 474 | 472 | 463 | 469 | 475 | 467 |
| FC1=CC=C(SC/2=N/N3\C=N/C(=O)/C(=C3/C=C2)C4=C(Cl)C=CC=C4Cl)C(=C1)F | 454 | 436 | 452 | 409 | 435 | 398 | 457 | 463 | 466 |
| C[N]1C=C(C2=C1C=CC=C2)\C3=C(\C(=O)NC3=O)C4=C5CC(CN)CC[N]5C6=C4C=CC=C6 (centres undefined) | 456 | 440 | 443 | 395 | 399 | 420 | 452 | 443 | 460 |
| C=CC(=O)N1CCC[C@@H](n2nc(-c3ccc(Oc4ccccc4)cc3)c3c(N)ncnc32)C1 | 414 | 458 | 452 | 456 | 443 | 424 | 462 | 446 | 467 |
| Cn1cnc2c1c(=O)[nH]c(=O)n2C | 452 | 452 | 445 | 447 | 415 | 443 | 440 | 443 | 449 |
| CN[C@@H]1[C@H](O)[C@H](NC)[C@H]2O[C@@]3(O)C(=O)C[C@@H](C)O[C@H]3O[C@@H]2[C@H]1O | 457 | 450 | 446 | 465 | 445 | 458 | 438 | 424 | 467 |
| C=C[C@H]1CN2CC[C@H]1C[C@H]2[C@H](O)c1ccnc2ccc(OC)cc12 | 458 | 466 | 446 | 472 | 442 | 431 | 464 | 443 | 469 |
| C[C@@]12C[C@@]3(O)O[C@@H](O1)[C@]1(COC(=O)c4ccccc4)[C@H]3C[C@@]12O[C@@H]1O[C@H](CO)[C@@H](O)[C@H](O)[C@H]1O | 469 | 467 | 469 | 456 | 454 | 463 | 436 | 463 | 463 |
| CCC[C@H]1C[C@H](C(=O)N[C@@H]([C@@H]2O[C@@H](SC)[C@@H](O)[C@@H](O)[C@H]2O)[C@H](C)Cl)N(C)C1 | 465 | 455 | 467 | 447 | 450 | 447 | 459 | 430 | 439 |
| CC1(C)O[C@@H]2C[C@H]3[C@@H]4CCC5=CC(=O)C=C[C@]5(C)[C@H]4[C@@H](O)C[C@]3(C)[C@]2(C(=O)CO)O1 | 391 | 357 | 331 | 313 | 353 | 318 | 474 | 445 | 454 |
| OC1=CC2=C(C(=C1)O)C(=O)\C=C(/O2)C3=CC=CC=C3 | 441 | 443 | 446 | 429 | 410 | 423 | 450 | 453 | 456 |
| CC(C)=CC[C@@H](O)C/1=C/C(=O)C2=C(O)C=CC(=C2C1=O)O | 413 | 415 | 434 | 449 | 407 | 431 | 379 | 354 | 368 |
| Cc1cnc(NC(=O)Nc2cc(Br)c(C)cc2OC[C@@H]2CNCCO2)cn1 | 424 | 435 | 393 | 328 | 350 | 326 | 355 | 409 | 365 |
| FC(F)c1nc2ccccc2n1-c1nc(N2CCOCC2)nc(N2CCOCC2)n1 | 413 | 367 | 394 | 325 | 351 | 326 | 260 | 329 | 333 |
